We go through ten compounds from patent US9040516B2, “Uracil derivative and use thereof for medical purposes” (SUMITOMO DAINIPPON PHARMA CO., LTD., priority 2011, dated 2015).

The structures appear in SMILES notation.

In data set [1] the target is T1, human neutrophil elastase (Homo sapiens, UniProt P08246).
T1 construct: purchased Elastin Products Company
T1 sequence (P08246 30-267): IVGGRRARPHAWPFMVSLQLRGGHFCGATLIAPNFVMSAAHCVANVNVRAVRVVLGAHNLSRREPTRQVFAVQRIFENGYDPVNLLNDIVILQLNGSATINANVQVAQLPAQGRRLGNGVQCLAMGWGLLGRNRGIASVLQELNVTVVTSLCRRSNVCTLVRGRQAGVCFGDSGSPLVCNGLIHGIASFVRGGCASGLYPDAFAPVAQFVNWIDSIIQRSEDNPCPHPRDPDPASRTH
Description: Inhibitory action against human neutrophil elastase (Test Example 1; fluorogenic substrate MeOSuc-AAPV-AMC, buffer with 2M NaCl, 0.002% Brij-35). Particulars: 37° C., read-out: IC50 value (compound concentration required for 50% inhibition of human neutrophil elastase). The data set is classed as biochemical. The gist of the method:
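Enzyme (0.4 unit/ml in stock buffer: 200 mM HEPES pH 7.5, 2M NaCl, 0.002% Brij-35) preincubated with compound 5 min at 37 °C. Reaction started with MeOSuc-AAPV-AMC (0.5 mM stock) and run 5 min at 37 °C; AMC fluorescence (ex 380, em 460 nm) gave inhibition ratio.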

Data set [2] addresses T1, human neutrophil elastase. Description: Inhibitory action 2 against human neutrophil elastase (Test Example 2; fluorogenic substrate MeOSuc-AAPV-AMC, buffer with 400 mM NaCl, 0.2 mg/ml BSA). The data set is classed as biochemical. Particulars: 37° C., read-out: IC50 value (compound concentration required for 50% inhibition of human neutrophil elastase). How it is done: Assay buffer (0.4 unit/ml HNE (human neutrophil elastase, available from Elastin Products Company), 200 mM HEPES [N-(2-hydroxyethyl)piperazine-N′-(2-ethanesulfonic acid)], pH 7.5, 400 mM NaCl, 0.2 mg/ml BSA (bovine serum albumin)) 100 μl, water for injection 20 μl and 1% DMSO (dimethyl sulfoxide) solution of the present compound 20 μl were mixed in a 96 well plate and the mixed solutions were pre-incubated at 37° C. for five minutes. After pre-incubation, MeOSuc-AAPV-AMC (methoxysuccinyl-alanyl-alanyl-prolyl-valyl-aminomethyl cumaride (available from Sigma Aldrich Corp.) solution as fluorogenic substrate (which was dissolved in 10% DMSO solution so as to adjust to 0.5 mM) 40 μl was added to the above-prepared mixed solution so as to initiate the reaction, and the mixture was incubated at 37° C. for five minutes. The fluorescence intensity of AMC was measured at an excitation wavelength of 380 nm and a fluorescence wavelength of 460 nm and the inhibition ratio was determined.

In general, melting point refers to the temperature of the solid-liquid transition.

With `Cc1c(-c2ccnn2-c2ccc(C#N)cc2)c(=O)n(C)c(=O)n1-c1cccc(C(F)(F)F)c1` [Example 1, 4-[5-[3,6-dimethyl-2,4-dioxo-1-(3-trifluoromethylphenyl)-1,2,3,4-tetrahydropyrimidin-5-yl]-1H-pyrazol-1-yl]benzonitrile], the IC50 in data set [1] was determined as 19 nM; in data set [2] it was 16.9 nM. Consider `CCCn1c(=O)c(-c2ccnn2-c2ccc(C#N)cc2)c(C)n(-c2cccc(C(F)(F)F)c2)c1=O` [Example 2, 4-[5-[6-methyl-2,4-dioxo-3-propyl-1-(3-trifluoromethylphenyl)-1,2,3,4-tetrahydropyrimidin-5-yl]-1H-pyrazol-1-yl]benzonitrile], for which the values for the IC50 in data set [1] and in data set [2] were 35 nM and 18.6 nM, respectively. In the case of `Cc1c(-c2ccnn2-c2ccc(C#N)cc2)c(=O)n(C)c(=O)n1-c1cccc(Cl)c1` [Example 17, 4-[5-[1-(3-chlorophenyl)-3,6-dimethyl-2,4-dioxo-1,2,3,4-tetrahydropyrimidin-5-yl]-1H-pyrazol-1-yl]benzonitrile], the IC50 was found to be 95 nM in data set [1] and 23.4 nM in data set [2]. For `Cc1cccc(-n2c(C)c(-c3ccnn3-c3ccc(C#N)cc3)c(=O)n(C)c2=O)c1` [Example 37, 4-(5-(3,6-dimethyl-2,4-dioxo-1-m-tolyl-1,2,3,4-tetrahydropyrimidin-5-yl)-1H-pyrazol-1-yl)benzonitrile] the same measures were 191 nM and 64.2 nM. Regarding `Cc1c(-c2ccnn2-c2ccc(C#N)cc2)c(=O)n(C)c(=O)n1-c1cccc(C(=O)N(C)C)c1` [Example 106, 3-[5-[1-(4-cyanophenyl)1H-pyrazol-5-yl]-3,6-dimethyl-2,4-dioxo-3,4-dihydropyrimidin-1(2H)yl]-N,N-dimethylbenzamide], the IC50 in data set [1] worked out at 13900 nM. The same measure, in the same setting: then `Cc1c(-c2ccnn2-c2ccc(C#N)cc2)c(=O)n(C)c(=O)n1-c1cccc(-c2ccccc2)c1` [Example 107, 4-(5-(1-(Biphenyl-3-yl)-3,6-dimethyl-2,4-dioxo-1,2,3,4-tetrahydropyrimidin-5-yl)-1H-pyrazol-1-yl)benzonitrile], with 5400 nM; and `CCc1cccc(-n2c(C)c(-c3ccnn3-c3ccc(C#N)cc3)c(=O)n(C)c2=O)c1` [Example 108, 4-[5-[3,6-Dimethyl-2,4-dioxo-1-(3-ethylphenyl)-1,2,3,4-tetrahydropyrimidin-5-yl]-1H-pyrazol-1-yl]benzonitrile], with 332 nM. Turning to `Cc1c(-c2c(C(N)=O)cnn2-c2ccc(C#N)cc2)c(=O)n(C)c(=O)n1-c1cccc(C(F)(F)F)c1` [Example 148], the melting point was 263 °C. Also, the IC50 in data set [2] came to 14.5 nM. For `Cc1c(-c2c(C(=O)N3CCCC3)cnn2-c2ccc(C#N)cc2)c(=O)n(C)c(=O)n1-c1cccc(C(F)(F)F)c1` [Example 162] the same measures were 227 °C and 12.6 nM.

The compound `Cc1c(-c2ccnn2-c2ccc(C#N)cc2)c(=O)n(C(C)C(N)=O)c(=O)n1-c1cccc(C(F)(F)F)c1` (centres unmarked) [Example 377] yielded a melting point of 226 °C. Moreover, in data set [2], the IC50 is 11 nM.
